Laboratory results from publication PMC12195740, “Discovery of Novel Imidazothiazole-Based Hydroxamic Acid Derivatives as Potent Indoleamine 2,3-Dioxygenase 1 and Histone Deacetylase 6 Dual Inhibitors” (Molecules, 2025).

Experiments:
[1] = biological target: T1, HDAC6 human recombinant enzyme (Homo sapiens, UniProt Q9UBN7); assay: HDAC6 enzyme inhibitory activity assay; type: biochemical; conditions: read-out: HDAC6 Inhibition Rate at 1 μM
T1 sequence (Q9UBN7 1-1215): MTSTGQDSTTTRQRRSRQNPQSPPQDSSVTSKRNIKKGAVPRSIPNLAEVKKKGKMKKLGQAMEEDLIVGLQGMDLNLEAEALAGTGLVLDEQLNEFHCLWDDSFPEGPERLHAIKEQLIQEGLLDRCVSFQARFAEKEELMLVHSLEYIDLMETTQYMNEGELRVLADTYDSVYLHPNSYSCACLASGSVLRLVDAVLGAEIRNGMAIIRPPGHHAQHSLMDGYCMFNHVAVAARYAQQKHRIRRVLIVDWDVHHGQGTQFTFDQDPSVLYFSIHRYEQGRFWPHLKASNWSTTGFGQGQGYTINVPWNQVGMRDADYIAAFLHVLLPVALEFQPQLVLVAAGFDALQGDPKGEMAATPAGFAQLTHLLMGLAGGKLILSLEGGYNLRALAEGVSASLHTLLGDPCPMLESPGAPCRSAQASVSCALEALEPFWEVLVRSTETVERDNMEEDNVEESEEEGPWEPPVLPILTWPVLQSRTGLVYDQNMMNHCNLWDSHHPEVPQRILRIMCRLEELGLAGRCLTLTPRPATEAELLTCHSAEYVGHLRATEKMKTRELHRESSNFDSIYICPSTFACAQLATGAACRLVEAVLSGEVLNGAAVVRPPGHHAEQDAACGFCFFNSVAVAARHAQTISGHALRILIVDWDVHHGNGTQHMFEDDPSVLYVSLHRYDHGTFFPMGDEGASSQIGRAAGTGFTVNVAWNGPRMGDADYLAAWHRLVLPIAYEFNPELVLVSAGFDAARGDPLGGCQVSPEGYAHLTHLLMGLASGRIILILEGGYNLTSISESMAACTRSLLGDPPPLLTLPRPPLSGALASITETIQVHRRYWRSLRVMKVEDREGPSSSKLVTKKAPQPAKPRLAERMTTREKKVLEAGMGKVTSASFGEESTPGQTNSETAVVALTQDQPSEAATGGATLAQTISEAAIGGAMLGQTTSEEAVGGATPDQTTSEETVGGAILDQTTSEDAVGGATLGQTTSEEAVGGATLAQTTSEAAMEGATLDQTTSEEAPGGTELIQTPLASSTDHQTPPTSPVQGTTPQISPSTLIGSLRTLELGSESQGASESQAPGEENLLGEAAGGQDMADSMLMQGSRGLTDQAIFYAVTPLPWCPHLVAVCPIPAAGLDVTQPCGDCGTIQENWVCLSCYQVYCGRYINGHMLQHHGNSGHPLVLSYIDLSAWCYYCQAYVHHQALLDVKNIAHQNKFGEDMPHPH
Method: Section S1. Biological assays
Section S 1.1. HDAC6 enzyme inhibitory activity assay
Preparation of Master Mix. Trichostatin A in DMSO, Fluorogenic HDAC substrate 3, and HDAC6 human recombinant enzyme were diluted to 20 μM, 200 μM, and 7 ng/uL, respectively, using HDAC Assay Buffer.BSA was dissolved in 1 mL of distilled water to make a BSA solution at a concentration of 1 mg/mL. A certain amount of Fluorogenic HDAC substrate 3, BSA and HDAC Assay Buffer were mixed well to make a master mix, and 40 μL of the master mix was added to each well of a 96-well plate. In the drug administration group, 5 μL of Trichostatin A in DMSO and HDAC6 human recombinant enzyme were added to each well. 5 μL of HDAC Assay Buffer and HDAC6 human recombinant enzyme were added to each well of the blank group, and incubated for 30 min at 37 °C. Finally, 50 μL of undiluted HDAC substrate 3, BSA and HDAC Assay Buffer were added to each well. 50 μL of 2x HDAC Developer was added to each well and incubated at room temperature for 15 min. The samples were read in an enzyme marker with an excitation wavelength in the range of 350-380 nm and an emission light in the range of 440-460 nm.
The values of fluorescence intensities were read and the inhibition rate and IC50 were calculated. […]

rhIDO1 = biological target: T2, rhIDO1 (Homo sapiens, UniProt P14902); assay: IDO1 inhibition assay; type: biochemical; conditions: means ± S.D. of three independent experiments
T2 construct: purchased
T2 sequence (P14902 whole entry): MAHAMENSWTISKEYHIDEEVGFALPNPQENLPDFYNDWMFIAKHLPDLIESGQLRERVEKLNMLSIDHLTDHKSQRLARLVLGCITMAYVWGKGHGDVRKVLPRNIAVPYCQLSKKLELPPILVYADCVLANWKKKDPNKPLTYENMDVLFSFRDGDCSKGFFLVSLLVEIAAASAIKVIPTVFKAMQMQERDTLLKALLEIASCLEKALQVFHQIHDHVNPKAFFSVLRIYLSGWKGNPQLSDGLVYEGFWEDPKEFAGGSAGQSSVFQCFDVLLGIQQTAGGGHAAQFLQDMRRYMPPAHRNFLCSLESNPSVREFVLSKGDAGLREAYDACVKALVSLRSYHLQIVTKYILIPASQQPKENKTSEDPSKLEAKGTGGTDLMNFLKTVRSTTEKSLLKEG
Method: Section S1. Biological assays […]
Section S 1.2 IDO1 inhibition assays
IDO1 inhibition assays were carried out according to the manufacturers’ procedures, as described previously. The standard assay mixture (100 μL) contained 50 mM of potassium phosphate buffer (pH = 6.5), 10 mM ascorbate, 10 μM methylene blue, 100 μg/mL catalase, 1 mM L-tryptophan and 10 μg/mL of rhIDO1. The plate was incubated at 37 °C in a dark environment, and reactions were terminated after 60 min by the addition of 50 μL of fluorogenic developer solution and further incubated at 45 °C in dark for 3 h. Then, the plate was allowed to cool to room temperature for at least 1 h. After centrifugation at 1500g for 5 min at 20 °C, the fluorescence […]
M1000 Pro, Tecan US, Morrisville, NC) in an end-point mode. […]

MCF-7 cells = assay: Cell viability (MTT) assay, MCF-7; conditions: Homo sapiens, MCF7, 48 h, read-out: Antiproliferative IC50, MCF-7
Method: Section S 1.3 Cell viability assays
(§1) Cell Bank at the Chinese Academy of Sciences.
(§2) DMEM and FBS were obtained from Gibco-Thermo (BRL Co. Ltd., USA).
(§3) another 48 h. The cells were stained with 10 μl of MTT at incubator for approximately 4 h. The medium was discarded and replaced by 100 mL DMSO. The O.D. value was read at 570/630 nm with a spectrophotometer.

HCT-116 cells = assay: Cell viability (MTT) assay, HCT-116; conditions: Homo sapiens, HCT-116, 48 h, read-out: Antiproliferative IC50, HCT-116
Method: Section S 1.3 Cell viability assays
as §1, §2, §3

SW480 cells = assay: Cell viability (MTT) assay, SW480; conditions: Homo sapiens, SW480, 48 h, read-out: Antiproliferative IC50, SW480
Method: Section S 1.3 Cell viability assays
as §1, §2, §3

MDA-MB-231 cells = assay: Cell viability (MTT) assay, MDA-MB-231; conditions: Homo sapiens, MDA-MB-231, 48 h, read-out: Antiproliferative IC50, MDA-MB-231
Method: Section S 1.3 Cell viability assays
as §1, §2, §3

[2] = General toxicity in CT26 tumor-bearing BALB/c mice (body weight, H&E of organs); type: in vivo; conditions: 150 mg/kg ip every 3 days for 21 days, versus vehicle group
Method: After that, fixed cells were washed with PBS. Then, cells were isolated by centrifugation and stained with propidium iodide (KeyGEN BioTECH, China) for 30 min. The samples were measured using flow cytometry and analyzed by Flowjo software.
Section S 1.6 Western blot assay […]
earlier were obtained by lysing the cells in ice-cold RIPA buffer with protease and phosphatase inhibitor and stored at -20°C for future use. The protein concentrations were quantified by the Bradford method (Bio-Rad) using a Multimode Varioscan instrument (Thermo Fischer Scientific). […]
and transferred to a polyvinylidene difluoride (PVDF) membrane (Amersham Biosciences). After the membrane was blocked at room temperature for 2 h in blocking solution, primary antibody was added and incubated at 4°C overnight. Ac-α-tubulin, Ac-histone H3 and GAPDH antibodies were purchased from Imgenex, USA. After three TBST washes, the membrane was incubated with corresponding horseradish peroxidase-labeled secondary antibody (1:2,000) (Santa Cruz) at room temperature for 1 h. Membranes were washed with TBST three times for 15 min and the protein bands were detected with chemiluminescence reagent (Thermo Fischer Scientific). The X-ray films were developed using developer and fixed with fixer solution.
Section S 1.7 In vivo antitumor efficacy […]
line CT-26 in BALB/c mice as described previously. Five-week-old male BALB/c mice were purchased from the Shanghai Ling Chang biotechnology company (China), and tumors were induced through subcutaneous injection of 1 × 10^7 cells in 100 µL of sterile PBS into the dorsal region. The animals were divided into four groups, starting on the second day. When the tumors reached a volume of 50−100 mm3 in all mice, the first group was administered intraperitoneally with an equivalent volume of 5% dextrose as the vehicle control. The second group was treated with […]
treated with complex 10e at doses of 150 mg/kg body weight once every 3 days for 3 weeks, respectively. All compounds were dissolved in vehicle. Tumor volumes and body weights were […]

Work on O=C(CCNc1ccc(NC(=O)c2cnc3scc(-c4ccc(Br)cc4)n23)cc1)NO [Compound 10a, 3-(4-Bromophenyl)-N-{4-[(3-(hydroxyamino)-3-oxopropyl)amino]phenyl}imidazo[2,1-b]thiazole-5-carboxamide] yielded an inhibition at 1 µM [1] of 22.4% and an IC50 (rhIDO1) of 1870 ± 60 nM.
Compound Cc1ccc(-c2csc3ncc(C(=O)Nc4ccc(NCCCC(=O)NO)cc4)n23)cc1 [Compound 10h, N-{4-[(4-(hydroxyamino)-4-oxobutyl)amino]phenyl}-3-(p-tolyl)imidazo[2,1-b]thiazole-5-carboxamide] has an inhibition at 1 µM [1] of 33.7% and an IC50 (rhIDO1) of 1780 ± 470 nM.
Cc1ccc(-c2csc3ncc(C(=O)Nc4ccc(NCCCCC(=O)NO)cc4)n23)cc1 [Compound 10i, N-{4-[(5-(hydroxyamino)-5-oxopentyl)amino]phenyl}-3-(p-tolyl)imidazo[2,1-b]thiazole-5-carboxamide] gave an inhibition at 1 µM [1] of 35.5% and an IC50 (rhIDO1) of 590 ± 110 nM.
For Cc1ccc(-c2csc3ncc(C(=O)Nc4ccc(NCCC(=O)NO)cc4)n23)cc1 [Compound 10g, N-{4-[(3-(hydroxyamino)-3-oxopropyl)amino]phenyl}-3-(p-tolyl)imidazo[2,1-b]thiazole-5-carboxamide], the inhibition at 1 µM [1] was 31.2% and the IC50 (rhIDO1) was 2070 ± 290 nM.
With NS(=O)(=O)NCCNc1nonc1C(=NO)Nc1ccc(F)c(Br)c1 [Epacadostat, reference compound] the IC50 (MCF-7 cells) was over 80000 nM, the IC50 (HCT-116 cells) was over 80000 nM and the IC50 (SW480 cells) was over 80000 nM. For the same compound, the IC50 (MDA-MB-231 cells) was over 80000 nM.
In the case of O=C(CCCCCNc1ccc(NC(=O)c2cnc3scc(-c4ccc(Br)cc4)n23)cc1)NO [Compound 10d], the IC50 (MCF-7 cells) is reported as 52900 ± 6950 nM, the IC50 (HCT-116 cells) is reported as 24400 ± 4780 nM and the inhibition at 1 µM [1] is reported as 46.2%. It also gave an IC50 (rhIDO1) of 120 ± 10 nM, an IC50 (SW480 cells) of over 80000 nM and an IC50 (MDA-MB-231 cells) of over 80000 nM.
For Cc1ccc(-c2csc3ncc(C(=O)Nc4ccc(NCCCCCC(=O)NO)cc4)n23)cc1 [Compound 10j, N-{4-[(6-(hydroxyamino)-6-oxohexyl)amino]phenyl}-3-(p-tolyl)imidazo[2,1-b]thiazole-5-carboxamide], the IC50 (MCF-7 cells) was over 80000 nM, the IC50 (HCT-116 cells) was over 80000 nM and the inhibition at 1 µM [1] was 40.2%. For the same compound, the IC50 (rhIDO1) was 380 ± 50 nM, the IC50 (SW480 cells) was over 80000 nM and the IC50 (MDA-MB-231 cells) was over 80000 nM.
With O=C(CCCNc1ccc(NC(=O)c2cnc3scc(-c4ccc(Br)cc4)n23)cc1)NO [Compound 10b, 3-(4-Bromophenyl)-N-{4-[(4-(hydroxyamino)-4-oxobutyl)amino)phenyl}imidazo[2,1-b]thiazole-5-carboxamide] the inhibition at 1 µM [1] was 25.2% and the IC50 (rhIDO1) was 1060 ± 20 nM.
O=C(CCCCNc1ccc(NC(=O)c2cnc3scc(-c4ccc(Br)cc4)n23)cc1)NO [Compound 10c, 3-(4-Bromophenyl)-N-{4-[(5-(hydroxyamino)-5-oxopentyl)amino)phenyl}imidazo[2,1-b]thiazole-5-carboxamide] gave an inhibition at 1 µM [1] of 19.4% and an IC50 (rhIDO1) of 340 ± 90 nM.
In the case of O=C(CCCCCCC(=O)Nc1ccccc1)NO [SAHA, reference compound], the inhibition at 1 µM [1] is reported as 91.7% and the “influence on body weight of the mice” value [2] is reported as “no obvious influence”.
For Cc1ccc(-c2csc3ncc(C(=O)Nc4ccc(NCC(=O)NO)cc4)n23)cc1 [Compound 10f, N-{4-[(2-(hydroxyamino)-2-oxoethyl)amino]phenyl}-3-(p-tolyl)imidazo[2,1-b]thiazole-5-carboxamide], the inhibition at 1 µM [1] was 28.8% and the IC50 (rhIDO1) was 6160 ± 830 nM.
Cc1ccc(-c2csc3ncc(C(=O)NCc4ccc(C(=O)NO)cc4)n23)cc1 [Compound 7b, N-[4-(hydroxycarbamoyl)benzyl]-3-(p-tolyl)imidazo[2,1-b]thiazole-5-carboxamide] showed an inhibition at 1 µM [1] of 48% and an IC50 (rhIDO1) of 960 ± 130 nM.
